This note sets out measurements from US12617777B2, “GPR84 antagonists and uses thereof” (Liminal BioSciences Limited, priority 2021, dated 2026).

The target of the assay is T1, human GPR84 receptor (Homo sapiens, UniProt Q9NQS5).
T1 construct: host or cells: HEK293, transient transfection
Kind of assay: Gαi biosensor BRET assay in HEK293 cells (antagonism of ZQ-16). The format is cell-based. As to conditions: for inhibition at 10 µM: HEK293, single concentration 10 μM (designated F); for inhibition at 2 µM: HEK293, single concentration 2 μM (designated A); for IC50: HEK293 cells, antagonism of 200 nmol/L ZQ-16; for inhibition at 25 µM: HEK293, single concentration 25 μM (designated I). In short, it runs like this:
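Antagonist mode: test compound 5 min at 37° C, followed by ZQ-16 agonist (200 nmol/L, 5 min, room temperature), in HEK293 cells transfected with GPR84 plus Rluc8-tagged Gαi2, GFP10-Gγ2 and Gβ1. Readout as GFP10/Rluc8 emission ratio after 5 μmol/L coelenterazine 400A, net of Rluc8-only and vehicle signal.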

T1 sequence (Q9NQS5 whole entry): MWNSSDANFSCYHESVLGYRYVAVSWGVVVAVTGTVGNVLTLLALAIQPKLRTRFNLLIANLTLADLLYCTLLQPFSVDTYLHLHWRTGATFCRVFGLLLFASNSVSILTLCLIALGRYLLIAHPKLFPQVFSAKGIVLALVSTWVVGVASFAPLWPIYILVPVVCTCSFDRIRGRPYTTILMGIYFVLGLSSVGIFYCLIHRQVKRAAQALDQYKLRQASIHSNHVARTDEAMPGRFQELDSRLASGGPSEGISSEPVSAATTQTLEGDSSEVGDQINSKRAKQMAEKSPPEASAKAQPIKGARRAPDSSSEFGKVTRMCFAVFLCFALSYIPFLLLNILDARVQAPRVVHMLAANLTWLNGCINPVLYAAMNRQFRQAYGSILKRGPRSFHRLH

For the compound `Cc1cc(C#CCNC(C)(C)C)ccc1-c1cn(CC2CCCCO2)nn1` (centres unmarked) [Compound I-267], the inhibition at 10 µM lay in the range of 25 to 50%.
For `CN(C)c1cc(N2CC3(CCOCC3)C2)ccc1-c1cn(CC2OCC(C)(C)CO2)nn1` [Compound I-854], the inhibition at 2 µM is greater than 75%.
In turn, `Cc1cc(C#CC2CC2)ccc1-c1cn(C[C@@H]2CCCCO2)nn1` [Compound I-174] registered an IC50 greater than 3 µM. Also, under “HEK293, single concentration 5 μM (designated D)”, the inhibition at 5 µM was no more than 25%.
As to `C(#CC1CC1)c1ccc(-c2cn(C[C@H]3CCCCO3)nn2)nc1` [Compound I-28], the inhibition at 25 µM fell in the range of 25 to 50%.
As for `CC(c1ccnc(C#CC2CC2)c1)c1cn(CC2CCCCO2)nn1` (centres unmarked) [Compound I-699], the inhibition at 10 µM was no more than 25%.
Still for that read-out and setting: the figure for `CC(C)(O)c1cc(C#CC2CC2)ccc1-c1cn(CC2CCCCO2)nn1` (centres unmarked) [Compound I-229] is no more than 25%; for `Cc1cc(N2CC3(CC3)C2)cnc1-c1cn(CC2CCCCO2)nn1` (centres unmarked) [Compound I-571] it is no more than 25%.
For the compound `Cc1cc(N2CCN(Cc3ccccn3)CC2)ccc1-c1cncn1C[C@H]1CCCCO1` [Compound I-672], the inhibition at 10 µM is no more than 25%.
Consider `Cc1cc(C#CC2CCC2)ccc1-c1cn(CC2CCCCO2)nn1` (centres unmarked) [Compound I-540], for which the inhibition at 10 µM was greater than 75%.
The same measure, in the same setting: under `Cc1cc(C#CCNc2ccccc2)ccc1-c1cn(CCOc2cccnc2)nn1` [Compound I-136] stands no more than 25%.
`COC(c1cccc(C#CC2CC2)c1)c1cn(CC2CCCCO2)nn1` (centres unmarked) [Compound I-490]: the inhibition at 10 µM was greater than 75% and the 50% inhibitory concentration (IC50) fell in the range of 0.3 to 1 µM.
On to `CC1(CO)CN(c2cnc(-c3cn(CC4OCC5(CCC5)O4)nn3)c(OCC(F)(F)F)c2)C1` (centres unmarked) [Compound I-816], for which the inhibition at 10 µM was greater than 75%.
`Cc1cc(NC(=O)CC2CC2)ccc1-c1cn(CC2CCCCO2)nn1` (centres unmarked) [Compound I-358] showed an inhibition at 2 µM of no more than 25%.
Turning to `C(#CC1CC1)c1cccc(-c2nnn(CC3COCCO3)n2)c1` (centres unmarked) [Compound I-6], the inhibition at 25 µM is no more than 25%.
`Cc1cc(C#CCNC(=O)OCc2ccccc2)ccc1-c1cn(CC2CCCCO2)nn1` (centres unmarked) [Compound I-608] registered an inhibition at 10 µM greater than 75% and an IC50 of 0.3 to 1 µM.
Compound `C[C@@H]1Cc2oc(C(=O)NCc3cnc(C4CC4)cn3)c(C(F)(F)F)c2-c2nn(C[C@H]3COCCO3)cc21` [Compound I-775] had an IC50 of no more than 0.3 µM.
Regarding `COCCn1cc(-c2ccc(C#CC3CC3)cc2)nn1` [Compound I-103], the inhibition at 10 µM was no more than 25%.
In turn, `Cc1ccc(-c2ccc(-c3cn(CC4CCCCO4)nn3)cc2)cn1` (centres unmarked) [Compound I-39] gave an inhibition at 25 µM greater than 75% and an IC50 greater than 3 µM.
`Cc1cc(N2CCC[C@@H](N(C)Cc3ccccc3)C2)ccc1-c1cn(C[C@H]2CCCCO2)nn1` (relative stereo) [Compound I-238]: the inhibition at 10 µM is 50 to 75% and the IC50 was 1 to 3 µM.
In turn, `Cc1ccc(C#CC2CC2)nc1-c1cn(Cc2ccccn2)nn1` [Compound I-480] yielded an inhibition at 2 µM of no more than 25%.
On to `COC(=O)C1CCCN1CC#Cc1ccc(-c2cn(CC3CCCCO3)nn2)c(C)c1` (centres unmarked) [Compound I-233], for which the inhibition at 10 µM lay in the range of 50 to 75%.
On the same count and under the same terms, the figure for `Cc1cc(N2CCN(c3ccncc3)CC2)ccc1-c1cn(CC2CCCCO2)nn1` (centres unmarked) [Compound I-563] is no more than 25%.
In turn, `Cc1cn(CC2CCCCO2)nc1-c1ccc(C#CC2CC2)cc1` (centres unmarked) [Compound I-316] had an inhibition at 25 µM of no more than 25%.
With `CC1(C)COC(Cn2cc(-c3ccc(N4CC(C)(NCc5ccccn5)C4)cc3CC(F)(F)F)nn2)OC1` [Compound I-745], the inhibition at 2 µM was greater than 75% and the IC50 was in the range of 0.3 to 1 µM.
With `Cc1cc(C#CC2CC2)ccc1-c1ncn(CC2CCCCO2)c1C` (centres unmarked) [Compound I-339], the inhibition at 10 µM lay in the range of 25 to 50%.
`CC(=O)c1cc(C#CC2CC2)ccc1-c1cn(CC2CCCCO2)nn1` (centres unmarked) [Compound I-124] showed an inhibition at 10 µM of 25 to 50%.
For the compound `CC(=O)N1CCOCC1Cn1cc(-c2ccc(C#CC3CC3)cc2C)nn1` (centres unmarked) [Compound I-99], the inhibition at 10 µM is no more than 25%.
Consider `CC1(NCc2ccccn2)CN(c2ccc(-c3cn(CC4CCCCO4)nn3)c(CC(F)(F)F)c2)C1` (centres unmarked) [Compound I-744], for which the inhibition at 10 µM is greater than 75% and the IC50 was in the range of 0.3 to 1 µM.
The compound `Cc1cc(C#CC2CC2)ccc1-c1cn(CC2CCCO2)nn1` (centres unmarked) [Compound I-60] came in with an IC50 greater than 3 µM.
As to `Cc1cc(C#CCN2CCCCC2=O)ccc1-c1cn(CC2CCCCO2)nn1` (centres unmarked) [Compound I-205], the inhibition at 10 µM lay in the range of 25 to 50%.
The same measure, in the same setting: under `Cc1cc(C2CCN(Cc3ccccn3)CC2)ccc1-c1cn(CC2CCCCO2)nn1` (centres unmarked) [Compound I-440] stands no more than 25%; under `Cc1cc(C#CC2CC2)ccc1-c1cn(CC2CC(C)(C)CCO2)nn1` (centres unmarked) [Compound I-599], no more than 25%.
In the case of `Cc1ccc(-c2ccc(-c3cn(C[C@H]4CCCO4)nn3)cc2)cn1` [Compound I-31], the inhibition at 25 µM was no more than 25%.
`Cc1cc(C#CC(C)O)ccc1-c1cn(CC2CCCCO2)nn1` (centres unmarked) [Compound I-78] had an IC50 of 1 to 3 µM.
On to `Cc1cc(N2CC(C)(F)C2)ccc1-c1cn(CC2CCCCO2)nn1` (centres unmarked) [Compound I-519], for which the inhibition at 10 µM lay within 25 to 50%.
`Cc1cc(C#CC2CC2)ccc1-c1cnn(CC2CCCCO2)c1` (centres unmarked) [Compound I-324] returned an inhibition at 25 µM of no more than 25%.
In the case of `Cc1ccc(C#CC2CC2)nc1-c1cn(CC2CCCCO2)nn1` (centres unmarked) [Compound I-479], the inhibition at 10 µM was no more than 25%.
With `Cc1cc(C#CC2CC2)ccc1-c1cn(CC2CCC(=O)O2)nn1` (centres unmarked) [Compound I-539], the inhibition at 10 µM was no more than 25%.
Turning to `Cc1ccc(C#CC2CC2)cc1-c1cn(Cc2ncccn2)nn1` [Compound I-293], the inhibition at 2 µM is greater than 75%.
`Cc1cc(C#CC2CC2)ccc1-c1cn(CC2COCCN2)nn1` (centres unmarked) [Compound I-515] came in with an inhibition at 10 µM of no more than 25%.
As for `Cc1cc(N2CC(C)(C)C2)ccc1-c1cn(CC2OCC(F)(F)CO2)nn1` [Compound I-687], the inhibition at 10 µM lay within 50 to 75%.
The compound `COC1CCN(c2ccc(-c3cn(CC4CCCCO4)nn3)c(C)c2)C1` (centres unmarked) [Compound I-463] had an inhibition at 2 µM of no more than 25%.
As for `COC(=O)N1CCC(c2ccc(-c3cn(CC4CCCCO4)nn3)c(C)c2)CC1` (centres unmarked) [Compound I-484], the inhibition at 10 µM is no more than 25%.
As for `CC1(CO)CN(c2ccc(-c3cn(CC4OCC5(CCC5)O4)nn3)c(OC3CC3)c2)C1` (centres unmarked) [Compound I-810], the inhibition at 10 µM is greater than 75% and the IC50 fell in the range of 0.3 to 1 µM.
Regarding `C(#CC1CC1)c1ccc2c(c1)CCc1cn(CC3CCCCO3)nc1-2` (centres unmarked) [Compound I-328], the inhibition at 10 µM is no more than 25%.
The compound `COC(c1cn(CC2CCCCO2)nn1)c1cc(C#CC2CC2)ccc1F` (centres unmarked) [Compound I-621] came in with an inhibition at 10 µM of 50 to 75%.
On the same count and under the same terms, under `C(#CC1CC1)c1ccc(Cc2cn(CC3CCCCO3)nn2)cc1` (centres unmarked) [Compound I-298] stands 25 to 50%.
Compound `COC(c1cn(CC2CCCCO2)cn1)c1cc(C#CC2CC2)ccc1C` (centres unmarked) [Compound I-646] came in with an inhibition at 2 µM greater than 75% and an IC50 of 0.3 to 1 µM.
In turn, `Cc1cc(C#CCNC(=O)OC(C)C)ccc1-c1cn(CC2CCCCO2)nn1` (centres unmarked) [Compound I-616] came in with an inhibition at 10 µM greater than 75% and a concentration for half-maximal inhibition (IC50) greater than 3 µM.
In turn, `Cc1cc(N2CCN(C3(c4ccccn4)CC3)CC2)ccc1-c1cn(CC2CCCCO2)nn1` (centres unmarked) [Compound I-613] displayed an inhibition at 10 µM of no more than 25%.
On the same count and under the same terms, the figure for `Cc1cc(C#CC2CC2)ccc1-c1cn(CC2CCCCO2)cn1` (centres unmarked) [Compound I-341] is 50 to 75%.
Same read-out and setting: under `COC(=O)C1(C)CN(c2ccc(-c3cn(CC4CCCCO4)nn3)c(C)c2)C1` (centres unmarked) [Compound I-409] stands 25 to 50%.
Take `Cc1cc(N2CC(C)(CO)C2)c(F)cc1-c1cn(CC2CCCCO2)nn1` (centres unmarked) [Compound I-730]: the inhibition at 10 µM was greater than 75% and the IC50 fell in the range of 0.3 to 1 µM.
Compound `C(#CC1CC1)c1ccc(-c2cn(CC3CCCCO3)cn2)cc1` (centres unmarked) [Compound I-333] displayed an inhibition at 15 µM (HEK293, single concentration 15 μM (designated H)) of no more than 25%.
`CO[C@@H](c1cn(C[C@@H]2CCCCO2)nn1)c1cc(C#CC2CC2)ccc1C` [Compound I-513] yielded an inhibition at 2 µM of 25 to 50% and an IC50 greater than 2 µM.
Take `Cc1cc(N2CC(C)(C(=O)Nc3ccccc3)C2)ccc1-c1cn(CC2CCCCO2)nn1` (centres unmarked) [Compound I-410]: the inhibition at 2 µM lay within 25 to 50%.
Compound `Cc1ccc(N2CC(C)(C)C2)cc1Cc1cn(CC2CCCCO2)nn1` (centres unmarked) [Compound I-443] yielded an inhibition at 10 µM of no more than 25%.
The same measure, in the same setting: the figure for `Cc1cc(C#CC2CC2)ccc1-c1cn(CC2CN(C)CCO2)nn1` (centres unmarked) [Compound I-181] is no more than 25%; for `CC1(C)CN(c2ccc(-c3cn(CC4CCCCO4)nn3)c(F)c2)C1` (centres unmarked) [Compound I-379] it is greater than 75%; for `Cc1cc(N2CC(F)C2)ccc1-c1cn(CC2CCCCO2)nn1` (centres unmarked) [Compound I-529] it is no more than 25%.
`Cc1cc(N2CC(C)(C)C2)c(C)cc1-c1cn(CC2OCC(C)(C)CO2)nn1` [Compound I-685] returned an inhibition at 10 µM greater than 75% and an IC50 of 1 to 3 µM.
In the case of `COC(=O)c1cc(C#CC2CC2)ccc1-c1cn(CC2CCCCO2)nn1` (centres unmarked) [Compound I-214], the inhibition at 10 µM is no more than 25%.
The same measure, in the same setting: the figure for `CC(=O)NCC1(C)CN(c2ccc(-c3cn(CC4CCCCO4)nn3)c(C)c2)C1` (centres unmarked) [Compound I-447] is 25 to 50%.
`Cc1cc(N2CCN(Cc3ccccn3)C(=O)C2)ccc1-c1cn(CC2OCC(C)(C)CO2)nn1` [Compound I-752] displayed an inhibition at 10 µM of 25 to 50%.
The same measure, in the same setting: under `C(#CC1CC1)c1ccc(-c2cn(CC3CCCCO3)nn2)c(N2CCOCC2)c1` (centres unmarked) [Compound I-198] stands 25 to 50%.
For `Cc1nn(CC2CCCCO2)cc1-c1cccc(C#CC2CC2)c1` (centres unmarked) [Compound I-323], the inhibition at 25 µM was no more than 25%.
In turn, `CC(C)Oc1cc(N2CC(C)(C)C2)ccc1-c1cn(CC2CCCCO2)nn1` (centres unmarked) [Compound I-271] displayed an inhibition at 2 µM greater than 75%.
